From publication PMC4157643 (Journal of pharmaceutical sciences, 2012)
“And” between values parts separate entries of the source, which are not always exact repeats. Equal values may be shown once. Read-outs that look alike come from different tables or passages of the source. One block for each compound: values may come before it.

Experiments:
[1] = ref [2],[4], cited from earlier work
[2] = vitreous humor, two-compartment model, n=4
[3] = retina to scleral (R-S) direction, isolated rabbit RCS; ref [4]; cited from earlier work
[4] = ref Ameer et al., [10]; cited from earlier work
[5] = in vivo; conditions: male, New Zealand white, rabbit

Compound: glucosyl hesperidin [hesperidin G]
log P [1]: −3.2
log P ([1]; listed as Hesperidin G): < −3.2
AUC ([2]; intravitreal dose 1.5 µg): 688 ± 47 µg·min/mL
Alpha ([2]; intravitreal dose 1.5 µg): 0.045 ± 0.019 min⁻¹
Alpha_HL ([2]; intravitreal dose 1.5 µg): 17 ± 6 min
Beta ([2]; intravitreal dose 1.5 µg): 0.0014 ± 0.0002 min⁻¹
Beta_HL ([2]; intravitreal dose 1.5 µg): 495 ± 66 min
CL ([2]; intravitreal dose 1.5 µg): 0.0022 ± 0.0002 mL/min
CLD2 ([2]; intravitreal dose 1.5 µg): 0.011 ± 0.002 mL/min
Cmax ([2]; intravitreal dose 1.5 µg): 3790 ± 1060 ng/mL
MRT ([2]; intravitreal dose 1.5 µg): 10.8 ± 1.5 h
Vss ([2]; intravitreal dose 1.5 µg): 1.41 ± 0.14 mL
AUC ([2]; intravitreal dose 4.5 µg): 1811 ± 269 µg·min/mL
Alpha ([2]; intravitreal dose 4.5 µg): 0.028 ± 0.011 min⁻¹
Alpha_HL ([2]; intravitreal dose 4.5 µg): 29 ± 16 min
Beta ([2]; intravitreal dose 4.5 µg): 0.0015 ± 0.0002 min⁻¹
Beta_HL ([2]; intravitreal dose 4.5 µg): 468 ± 82 min
CL ([2]; intravitreal dose 4.5 µg): 0.0025 ± 0.0004 mL/min
CLD2 ([2]; intravitreal dose 4.5 µg): 0.003 ± 0.001 mL/min
Cmax ([2]; intravitreal dose 4.5 µg): 20160 ± 6120 ng/mL
MRT ([2]; intravitreal dose 4.5 µg): 6.97 ± 0.35 h
Vss ([2]; intravitreal dose 4.5 µg): 1.05 ± 0.013 mL
AUC ([2]; intravitreal dose 15 µg): 6167 ± 168 µg·min/mL
Alpha ([2]; intravitreal dose 15 µg): 0.027 ± 0.007 min⁻¹
Alpha_HL ([2]; intravitreal dose 15 µg): 27 ± 8 min
Beta ([2]; intravitreal dose 15 µg): 0.0017 ± 0.0003 min⁻¹
Beta_HL ([2]; intravitreal dose 15 µg): 414 ± 70 min
CL ([2]; intravitreal dose 15 µg): 0.0024 ± 0.0002 mL/min
CLD2 ([2]; intravitreal dose 15 µg): 0.007 ± 0.001 mL/min
Cmax ([2]; intravitreal dose 15 µg): 32050 ± 4390 ng/mL
MRT ([2]; intravitreal dose 15 µg): 8.62 ± 1.33 h
Vss ([2]; intravitreal dose 15 µg): 1.25 ± 0.16 mL

Compound: COc1ccc([C@@H]2CC(=O)c3c(O)cc(O[C@@H]4O[C@H](CO[C@@H]5O[C@@H](C)[C@H](O)[C@@H](O)[C@H]5O)[C@@H](O)[C@H](O)[C@H]4O)cc3O2)cc1O [hesperidin, Hesperidin]
log P [1]: 1.79 and 1.78
apparent permeability [3]: 1.51 ± 0.78 × 10^−6 cm/s
oral bioavailability [4]: < 25%
AUC ([2]; intravitreal dose 1.5 µg): 651 ± 88 µg·min/mL
Alpha ([2]; intravitreal dose 1.5 µg): 0.0267 ± 0.0077 min⁻¹
Alpha_HL ([2]; intravitreal dose 1.5 µg): 28 ± 7 min
Beta ([2]; intravitreal dose 1.5 µg): 0.0016 ± 0.0004 min⁻¹
Beta_HL ([2]; intravitreal dose 1.5 µg): 386 ± 116 min
CL ([2]; intravitreal dose 1.5 µg): 0.0027 ± 0.0003 mL/min
CLD2 ([2]; intravitreal dose 1.5 µg): 0.0058 ± 0.0010 mL/min
Cmax ([2]; intravitreal dose 1.5 µg): 3260 ± 1350 ng/mL
MRT ([2]; intravitreal dose 1.5 µg): 9.08 ± 1.77 h
V2 ([2]; intravitreal dose 1.5 µg): 0.75 ± 0.62 mL
Vss ([2]; intravitreal dose 1.5 µg): 1.48 ± 0.42 mL
AUC ([2]; intravitreal dose 4.5 µg): 1575 ± 164 µg·min/mL
Alpha ([2]; intravitreal dose 4.5 µg): 0.0249 ± 0.0109 min⁻¹
Alpha_HL ([2]; intravitreal dose 4.5 µg): 31 ± 11 min
Beta ([2]; intravitreal dose 4.5 µg): 0.0017 ± 0.0003 min⁻¹
Beta_HL ([2]; intravitreal dose 4.5 µg): 407 ± 58 min
CL ([2]; intravitreal dose 4.5 µg): 0.0029 ± 0.0003 mL/min
CLD2 ([2]; intravitreal dose 4.5 µg): 0.0054 ± 0.0026 mL/min
Cmax ([2]; intravitreal dose 4.5 µg): 10820 ± 1120 ng/mL
MRT ([2]; intravitreal dose 4.5 µg): 7.47 ± 0.917 h
V2 ([2]; intravitreal dose 4.5 µg): 0.87 ± 0.21 mL
Vss ([2]; intravitreal dose 4.5 µg): 1.29 ± 0.21 mL
AUC ([2]; intravitreal dose 15 µg): 4835 ± 861 µg·min/mL
Alpha ([2]; intravitreal dose 15 µg): 0.0358 ± 0.0084 min⁻¹
Alpha_HL ([2]; intravitreal dose 15 µg): 20 ± 5 min
Beta ([2]; intravitreal dose 15 µg): 0.0014 ± 0.0004 min⁻¹
Beta_HL ([2]; intravitreal dose 15 µg): 466 ± 98 min
CL ([2]; intravitreal dose 15 µg): 0.0032 ± 0.0005 mL/min
CLD2 ([2]; intravitreal dose 15 µg): 0.0130 ± 0.0026 mL/min
Cmax ([2]; intravitreal dose 15 µg): 25230 ± 3020 ng/mL
MRT ([2]; intravitreal dose 15 µg): 11.1 ± 3.07 h
V2 ([2]; intravitreal dose 15 µg): 1.46 ± 0.40 mL
Vss ([2]; intravitreal dose 15 µg): 2.07 ± 0.35 mL

Vd [5]: 0.001 to 0.0015 L
AUC ([5]; 1.5 ug): 2980 ng·h/mL
Cmax ([5]; 1.5 ug): 1020 ± 200 ng/mL
clearance ([5]; 1.5 ug, CL): 0.0093 ± 0.004 mL/min
half-life ([5]; 1.5 ug, T1/2): 1.83 ± 0.467 h
AUC ([5]; 4.5 ug): 7920 ng·h/mL
Cmax ([5]; 4.5 ug): 4510 ± 570 ng/mL
clearance ([5]; 4.5 ug, CL): 0.0096 ± 0.0015 mL/min
half-life ([5]; 4.5 ug, T1/2): 1.48 ± 0.233 h
AUC ([5]; 15 ug): 29100 ng·h/mL
Cmax ([5]; 15 ug): 14700 ± 1990 ng/mL
clearance ([5]; 15 ug, CL): 0.0086 ± 0.0007 mL/min
half-life ([5]; 15 ug, T1/2): 1.38 ± 0.167 h
clearance ([5]; 15 ug, clearance rate (CL)): 0.0086 to 0.0096 mL/min
half-life ([5]; 15 ug, elimination half-life (T1/2)): 1.39 to 1.84 h
Compound: COc1ccc([C@@H]2CC(=O)c3c(O)cc(O)cc3O2)cc1O [hesperetin, Hesperetin]
apparent permeability [3]: 2.52 ± 0.51 × 10^−6 cm/s
